Measurements taken from BindingDB's records for doi:10.1016/s0960-894x(02)00455-9 (Fukui Research Institute, 2002).

Assays:
[1] = target: Nitric oxide synthase, inducible (Homo sapiens, UniProt P35228); experiment: ChEBML_89186
Description: Concentration required to inhibit Inducible nitric oxide synthase over expressed in A549 cells

[2] = target: T1, Nitric oxide synthase, endothelial (Homo sapiens, UniProt P29474); experiment: ChEBML_64984
T1 sequence (P29474 whole entry): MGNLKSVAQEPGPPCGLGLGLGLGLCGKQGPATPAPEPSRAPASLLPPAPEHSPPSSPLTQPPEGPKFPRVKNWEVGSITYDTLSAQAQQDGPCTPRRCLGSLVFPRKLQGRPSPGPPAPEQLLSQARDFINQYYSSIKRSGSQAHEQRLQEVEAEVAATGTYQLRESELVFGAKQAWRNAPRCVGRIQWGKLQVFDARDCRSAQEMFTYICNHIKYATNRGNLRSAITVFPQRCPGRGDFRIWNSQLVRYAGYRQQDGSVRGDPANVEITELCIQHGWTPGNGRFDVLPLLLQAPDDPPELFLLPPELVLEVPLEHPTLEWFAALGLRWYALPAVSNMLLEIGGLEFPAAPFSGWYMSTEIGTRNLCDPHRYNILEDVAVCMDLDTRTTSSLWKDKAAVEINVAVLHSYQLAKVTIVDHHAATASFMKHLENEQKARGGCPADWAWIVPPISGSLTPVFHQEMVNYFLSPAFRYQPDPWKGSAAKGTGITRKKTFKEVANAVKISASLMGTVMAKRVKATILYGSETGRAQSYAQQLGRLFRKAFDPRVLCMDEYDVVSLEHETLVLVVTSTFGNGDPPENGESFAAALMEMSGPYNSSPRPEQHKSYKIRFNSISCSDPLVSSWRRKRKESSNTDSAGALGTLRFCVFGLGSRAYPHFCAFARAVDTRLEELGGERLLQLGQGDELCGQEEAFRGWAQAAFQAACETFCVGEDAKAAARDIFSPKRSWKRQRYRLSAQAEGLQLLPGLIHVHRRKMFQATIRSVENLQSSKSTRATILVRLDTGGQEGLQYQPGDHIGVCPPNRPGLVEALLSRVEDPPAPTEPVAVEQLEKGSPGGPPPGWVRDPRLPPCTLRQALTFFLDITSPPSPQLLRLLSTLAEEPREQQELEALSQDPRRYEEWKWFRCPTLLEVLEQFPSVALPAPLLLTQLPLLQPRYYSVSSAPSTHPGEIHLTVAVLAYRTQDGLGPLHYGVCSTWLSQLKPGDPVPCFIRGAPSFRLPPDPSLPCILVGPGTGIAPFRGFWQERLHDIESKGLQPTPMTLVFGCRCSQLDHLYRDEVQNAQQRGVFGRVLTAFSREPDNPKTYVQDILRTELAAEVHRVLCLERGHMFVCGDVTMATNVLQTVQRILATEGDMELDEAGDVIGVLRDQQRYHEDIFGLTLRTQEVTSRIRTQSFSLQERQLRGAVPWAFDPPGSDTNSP
Description: Inhibition of human endothelial Nitric Oxide Synthase expressed in Sf-21 cells

Sequence of Nitric oxide synthase, inducible (P35228 whole entry): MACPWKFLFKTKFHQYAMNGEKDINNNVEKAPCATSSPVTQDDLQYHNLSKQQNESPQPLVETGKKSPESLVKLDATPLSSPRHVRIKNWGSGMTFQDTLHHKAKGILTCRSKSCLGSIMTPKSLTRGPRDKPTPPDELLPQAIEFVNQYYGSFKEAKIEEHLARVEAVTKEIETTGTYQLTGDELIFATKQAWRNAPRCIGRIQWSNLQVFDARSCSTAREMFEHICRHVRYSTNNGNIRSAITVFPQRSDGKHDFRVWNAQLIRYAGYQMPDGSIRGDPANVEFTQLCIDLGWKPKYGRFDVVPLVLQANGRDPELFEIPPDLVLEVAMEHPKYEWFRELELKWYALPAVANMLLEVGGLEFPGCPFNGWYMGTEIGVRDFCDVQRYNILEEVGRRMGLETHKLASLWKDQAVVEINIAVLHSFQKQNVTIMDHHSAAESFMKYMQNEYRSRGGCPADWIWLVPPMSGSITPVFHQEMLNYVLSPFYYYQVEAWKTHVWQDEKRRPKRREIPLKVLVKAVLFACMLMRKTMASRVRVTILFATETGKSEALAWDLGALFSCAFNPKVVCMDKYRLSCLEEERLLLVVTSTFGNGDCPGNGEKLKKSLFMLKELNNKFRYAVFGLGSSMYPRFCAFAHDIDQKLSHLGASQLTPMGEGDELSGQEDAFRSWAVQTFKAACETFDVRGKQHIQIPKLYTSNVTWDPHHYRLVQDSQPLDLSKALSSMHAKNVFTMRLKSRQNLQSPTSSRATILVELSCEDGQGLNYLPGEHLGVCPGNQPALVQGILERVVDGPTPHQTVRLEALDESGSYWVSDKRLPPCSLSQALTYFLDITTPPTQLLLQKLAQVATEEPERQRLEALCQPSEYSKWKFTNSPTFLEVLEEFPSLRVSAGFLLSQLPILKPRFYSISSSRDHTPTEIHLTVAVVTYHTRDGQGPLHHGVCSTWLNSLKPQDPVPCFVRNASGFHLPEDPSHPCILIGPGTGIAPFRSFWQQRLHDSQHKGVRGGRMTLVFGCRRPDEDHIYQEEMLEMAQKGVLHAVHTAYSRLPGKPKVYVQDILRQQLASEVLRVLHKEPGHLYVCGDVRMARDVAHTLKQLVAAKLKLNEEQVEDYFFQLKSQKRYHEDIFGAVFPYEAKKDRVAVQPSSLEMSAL

An IC50 [1] of 700 nM and an IC50 [2] of 440 nM were found for `CC1=CC(N)=NCC1` in this work.
